Reference: article PMC3164901 (European journal of medicinal chemistry, 2011)
Counter-ions that a name gives are not always drawn.

Key:
[1] = biological target: recombinant human PED10A (Homo sapiens, UniProt Q9Y233); test: PDE10A enzyme assay, [3H]cAMP scintillation proximity assay; assay type: biochemical
[2] = tested on: rats; conditions: ref [8]; cited from earlier work
[3] = tested on: rats; conditions: ref [8], cited from earlier work
[4] = tested on: rat; conditions: ref [23]; cited from earlier work
[5] = ref [24]; cited from earlier work
[6] = biological target: PDE3A (Homo sapiens, UniProt Q14432); test: PDE3A enzyme assay, [3H]cAMP SPA; assay type: biochemical
Chain of PDE3A (Q14432 whole entry, species assumed): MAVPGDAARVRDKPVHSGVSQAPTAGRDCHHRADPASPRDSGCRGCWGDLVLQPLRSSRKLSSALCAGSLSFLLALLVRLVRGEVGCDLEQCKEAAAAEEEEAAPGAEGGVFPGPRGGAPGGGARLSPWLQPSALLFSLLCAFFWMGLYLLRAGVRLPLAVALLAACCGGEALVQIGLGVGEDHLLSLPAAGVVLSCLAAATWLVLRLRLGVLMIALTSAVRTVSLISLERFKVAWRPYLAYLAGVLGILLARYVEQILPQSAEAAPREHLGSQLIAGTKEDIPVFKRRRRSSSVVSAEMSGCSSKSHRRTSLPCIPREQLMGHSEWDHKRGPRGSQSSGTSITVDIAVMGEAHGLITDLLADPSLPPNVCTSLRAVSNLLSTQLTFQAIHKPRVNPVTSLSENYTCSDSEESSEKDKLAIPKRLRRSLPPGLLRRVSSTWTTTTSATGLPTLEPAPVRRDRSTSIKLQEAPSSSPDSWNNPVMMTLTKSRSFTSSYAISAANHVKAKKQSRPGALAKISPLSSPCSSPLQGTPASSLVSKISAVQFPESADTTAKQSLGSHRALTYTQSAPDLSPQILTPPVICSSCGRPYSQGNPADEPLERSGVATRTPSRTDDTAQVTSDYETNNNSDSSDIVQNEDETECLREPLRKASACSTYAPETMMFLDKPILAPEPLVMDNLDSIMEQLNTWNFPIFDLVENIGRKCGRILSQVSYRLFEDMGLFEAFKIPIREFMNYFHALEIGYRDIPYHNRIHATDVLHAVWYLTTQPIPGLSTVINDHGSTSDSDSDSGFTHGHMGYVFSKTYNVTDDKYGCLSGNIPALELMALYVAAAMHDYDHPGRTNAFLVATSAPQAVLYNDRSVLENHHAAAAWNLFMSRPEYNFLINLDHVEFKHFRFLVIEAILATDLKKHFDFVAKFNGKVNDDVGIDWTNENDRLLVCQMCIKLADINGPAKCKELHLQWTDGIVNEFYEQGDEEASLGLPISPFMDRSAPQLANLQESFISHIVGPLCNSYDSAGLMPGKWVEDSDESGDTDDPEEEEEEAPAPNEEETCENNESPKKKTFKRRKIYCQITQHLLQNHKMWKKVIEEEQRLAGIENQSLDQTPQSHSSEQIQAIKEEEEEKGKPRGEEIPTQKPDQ

[7] = biological target: PDE3B (Homo sapiens, UniProt Q13370); test: PDE3B enzyme assay, [3H]cAMP SPA; assay type: biochemical
Chain of PDE3B (Q13370 whole entry, species assumed): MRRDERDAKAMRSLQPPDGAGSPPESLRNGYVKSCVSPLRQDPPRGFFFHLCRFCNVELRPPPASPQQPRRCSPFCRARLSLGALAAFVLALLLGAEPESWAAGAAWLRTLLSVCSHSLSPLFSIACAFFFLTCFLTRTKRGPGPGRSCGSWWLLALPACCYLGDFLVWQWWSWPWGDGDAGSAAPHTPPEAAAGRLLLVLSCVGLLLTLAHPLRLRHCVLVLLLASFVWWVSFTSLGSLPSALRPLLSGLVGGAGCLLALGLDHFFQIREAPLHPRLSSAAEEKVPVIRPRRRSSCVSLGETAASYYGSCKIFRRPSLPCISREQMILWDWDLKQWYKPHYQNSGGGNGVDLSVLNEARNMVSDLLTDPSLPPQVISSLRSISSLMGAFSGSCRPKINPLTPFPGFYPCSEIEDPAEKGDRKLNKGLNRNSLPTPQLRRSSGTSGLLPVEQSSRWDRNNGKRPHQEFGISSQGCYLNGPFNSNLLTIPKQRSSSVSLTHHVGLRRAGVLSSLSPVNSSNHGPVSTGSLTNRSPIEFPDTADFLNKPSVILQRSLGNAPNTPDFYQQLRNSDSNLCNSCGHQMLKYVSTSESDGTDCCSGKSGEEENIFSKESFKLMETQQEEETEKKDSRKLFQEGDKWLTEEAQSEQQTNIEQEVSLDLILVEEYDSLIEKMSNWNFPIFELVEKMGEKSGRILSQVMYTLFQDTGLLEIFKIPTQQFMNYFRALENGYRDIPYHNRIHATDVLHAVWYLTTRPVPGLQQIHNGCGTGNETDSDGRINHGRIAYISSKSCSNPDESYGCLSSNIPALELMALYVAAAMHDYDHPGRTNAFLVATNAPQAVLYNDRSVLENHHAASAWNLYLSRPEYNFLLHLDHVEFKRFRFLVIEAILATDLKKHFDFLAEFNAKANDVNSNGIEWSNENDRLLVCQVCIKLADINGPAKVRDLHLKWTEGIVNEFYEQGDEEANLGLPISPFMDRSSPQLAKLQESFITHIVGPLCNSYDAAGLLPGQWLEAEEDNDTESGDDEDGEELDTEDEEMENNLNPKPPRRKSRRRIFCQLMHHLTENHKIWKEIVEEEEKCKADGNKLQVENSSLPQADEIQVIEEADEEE

Chain of recombinant human PED10A (Q9Y233 whole entry): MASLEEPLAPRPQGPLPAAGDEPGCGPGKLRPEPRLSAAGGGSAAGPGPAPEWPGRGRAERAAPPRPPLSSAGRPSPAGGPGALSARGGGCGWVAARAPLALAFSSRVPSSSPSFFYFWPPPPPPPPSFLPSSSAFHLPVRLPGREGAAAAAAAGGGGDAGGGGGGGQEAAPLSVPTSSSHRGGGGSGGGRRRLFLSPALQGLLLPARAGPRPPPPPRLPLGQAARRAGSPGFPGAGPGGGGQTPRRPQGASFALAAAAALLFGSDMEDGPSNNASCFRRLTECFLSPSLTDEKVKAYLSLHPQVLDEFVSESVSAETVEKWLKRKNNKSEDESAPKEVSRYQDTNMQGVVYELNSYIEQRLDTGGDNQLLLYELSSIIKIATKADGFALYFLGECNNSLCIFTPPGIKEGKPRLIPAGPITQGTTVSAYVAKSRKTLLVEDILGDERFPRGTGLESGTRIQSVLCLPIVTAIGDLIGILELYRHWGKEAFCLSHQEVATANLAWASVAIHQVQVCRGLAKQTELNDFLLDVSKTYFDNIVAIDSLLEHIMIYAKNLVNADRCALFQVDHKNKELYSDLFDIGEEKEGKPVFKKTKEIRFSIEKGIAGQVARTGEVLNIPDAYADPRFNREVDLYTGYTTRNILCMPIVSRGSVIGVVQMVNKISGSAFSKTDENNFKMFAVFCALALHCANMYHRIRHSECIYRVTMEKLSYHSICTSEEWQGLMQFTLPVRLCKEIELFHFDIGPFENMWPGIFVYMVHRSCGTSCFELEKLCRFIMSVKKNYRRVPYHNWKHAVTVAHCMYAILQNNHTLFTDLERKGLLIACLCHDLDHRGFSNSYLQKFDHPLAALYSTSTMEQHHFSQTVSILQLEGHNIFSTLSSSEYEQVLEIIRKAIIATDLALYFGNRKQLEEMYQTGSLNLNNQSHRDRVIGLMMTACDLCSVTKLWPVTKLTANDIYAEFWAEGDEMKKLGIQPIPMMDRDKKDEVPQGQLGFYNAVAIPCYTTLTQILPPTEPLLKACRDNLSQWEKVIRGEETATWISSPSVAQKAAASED

## COc1cc(Cc2nccc3cc(OC)c(OCCF)cc23)cc(OC)c1 [6l, 1-(3,5-Dimethoxybenzyl)-7-(2-fluoroethoxy)-6-methoxyisoquinoline oxalate]
[1]
  IC50: 262 ± 1.1 nM

## COc1cc2ccnc(Cc3ccc(OCCOCCF)c(OC)c3)c2cc1OC.O=C(O)C(=O)O [8c, 1-(4-(2-(2-Fluoroethoxy)ethoxy)-3-methoxybenzyl)-6,7-dimethoxyisoquinoline oxalate]
[1]; 4-fluoroethoxy extended to 4-(2-(2-fluoroethoxy))ethoxy
  increase of PDE10A affinity versus 8b: 2 fold

## Cn1cc(-c2ccncc2)c(-c2ccc(OCc3ccc4ccccc4n3)cc2)n1 [MP-10]
[2]
  hyperactivity induced by phenylcyclohexylpiperidine (PCP) and amphetamine: able to reduce hyperactivity

## COc1cc2ncnc(C3CC[C@H](Oc4cnc5ccccc5n4)C3)c2cc1OC (stereo partly shown) [PQ-10]
[2]
  hyperactivity induced by phenylcyclohexylpiperidine (PCP) and amphetamine: able to reduce hyperactivity

## COc1ccc(Cc2nccc3cc(OC)c(OC)cc23)cc1OC [Papaverine, 1-(3,4-dimethoxybenzyl-6,7-dimethoxy)isoquinoline]
[3]; compound alone
  catalepsy on its own: did not cause catalepsy on its own
[3]; with haloperidol
  effect on cataleptic effect of the D2 receptor antagonist haloperidol: potentiated the cataleptic effect
[2]
  hyperactivity induced by phenylcyclohexylpiperidine (PCP) and amphetamine: able to reduce hyperactivity
[4]
  efficacy in novel object recognition: shown efficacy
[5]
  in vivo metabolism: rapid in vivo metabolism

## FC(F)(F)Cn1cc(-c2ccncc2)c(-c2ccc(OCc3ccc4ccccc4n3)cc2)n1 [TP-10]
[2]
  hyperactivity induced by phenylcyclohexylpiperidine (PCP) and amphetamine: able to reduce hyperactivity

## COc1ccc(Cc2ncnc3cc(OC)c(OC)cc23)cc1 [compound 11, 6,7-Dimethoxy-4-(4-methoxybenzyl)quinazoline oxalate]
[1]
  IC50: 48.8 ± 1.07 nM
[6]
  IC50: 3980 ± 510 nM
[7]
  IC50: 3100 ± 270 nM
